# Several values for one entry are separate records, joined by “and”; a condition that tells them apart may be missing. Equal values may be shown once. Read-outs that look alike come from different tables or passages of the source.
# Legend:
# [1] = tested on: E. coli ATCC 25922 control lineages; assay type: cell-based, Escherichia coli; conditions: two technical duplicates; for MIC against peptidomimetic 1 after selection: MHB
# Procedure: (§1) Continuous selection of resistance was performed for peptidomimetic 1 (Figure 1) and for the clinically relevant natural antimicrobial peptide, polymyxin B. A bacterial suspension of a single colony of E. coli ATCC 25922 was re-inoculated (10 µl) five times in unsupplemented MHB (990 µl). It was then re-inoculated in MHB supplemented with peptidomimetic 1 (ten lineages) or polymyxin B (ten lineages), and after ten re-inoculations at constant peptidomimetic or polymyxin B concentration, the concentrations were doubled. […] Four lineages grown in MHB with MilliQ water were included as control. Re-inoculations were performed twice a day, but were reduced to once a day when growth was slower as assessed by turbidity of the cultures. The total number of passages (supplemented with peptidomimetic/AMP) was 77 times equivalent to approx. 500 generations. For each increase in concentration the lineages were preserved as freezing stocks. Ten colony isolates were randomly selected from each lineage population at 32×MIC and preserved as freezing stocks.
# (§2) MIC was determined by using the micro-dilution method according to guidelines of the Clinical and Laboratory Standards Institute. Peptidomimetic 1 and erythromycin 1∶2 serial dilutions were prepared from 1024 µg/mL stock solutions to give a final range of 512-0.5 µg/mL in the wells. Ampicillin 1∶2 serial dilutions were prepared from a 256 µg/mL stock solution to give a final range of 128-0.13 µg/mL in the wells. Polymyxin B and gentamicin 1∶2 serial dilutions were prepared from a 64 µg/mL stock solution to give a final range of 32-0.03 µg/mL in the wells. Also, 1∶2 serial dilutions of the AMPs KR-12, IsCTp, melittin and PEP-1-K were prepared from 64 µg/mL stock solutions to give a final range of 32-0.03 µg/mL in the wells; however this was performed in 1% peptone instead of in MHB since activity was drastically diminished in the latter (not shown).
# (§3) The population lineages were tested for their susceptibility towards peptidomimetic 1, polymyxin B, gentamicin and ampicillin. Single-culture isolates selected from these populations were additionally tested against peptidomimetic 1, polymyxin B, erythromycin and the five reference AMPs. To estimate the level of cross-resistance to closely related peptidomimetics, MIC determinations were performed for peptidomimetics 2 and 3 (Figure 1) towards selected isolates. The bacterial suspensions were grown overnight in MHB at 37°C for determination of the population MIC, or individual isolates were grown overnight on non-selective BHI agar at 37°C. […] In all experiments, bacterial cells were suspended in 0.9% saline to give a turbidity of 0.13 at OD546 (approximately 1×10^8 CFU/mL) and diluted in MHB pH 7.4 to a final concentration of 5×10^5 CFU/mL in each well. Polypropylene plates (Nunc 442587) were used to minimize peptide binding, and the incubation time was 18–20 hours at 37°C. Incubation time was additionally extended up to 44 hours for the individual isolates due to a potential effect of growth rate on the outcome, but no effect was seen of this (not shown). MIC was found in a minimum of two technical (population MIC) or biological (isolate MIC) replicates as the lowest concentration of the AMP or antibiotic where no visible growth was observed.
# (§4) Frozen stocks were reconditioned in unsupplemented MHB media for five transfers (∼35 generations) at 37°C. The heritability of resistance was established through MIC determination of bacterial populations as described above.
# [2] = tested on: E. coli ATCC 25922 lineages adapted to peptidomimetic 1; assay type: cell-based, Escherichia coli; conditions: two technical duplicates; for MIC against peptidomimetic 1 after selection: MHB pH 7.4, 37°C, 18–20 h
# Procedure: as §1, §2, §3, §4
# [3] = tested on: E. coli ATCC 25922 lineages adapted to polymyxin B; assay type: cell-based, Escherichia coli; conditions: polymyxin B-exposed lineages, ~35 generations unsupplemented; became similar to controls; not shown
# Procedure: as §1, §2, §3, §4
# [4] = tested on: peptidomimetic-adapted E. coli isolates; conditions: for Potentiation (ability of plasma to interact synergistically with peptidomimetic 1): MHB vs MHB +25% plasma; for MIC in MHB +25% plasma: MHB with 25% human blood plasma (sodium citrate)
# Procedure: MIC was determined by using the micro-dilution method according to guidelines of the Clinical and Laboratory Standards Institute. Peptidomimetic 1 and erythromycin 1∶2 serial dilutions were prepared from 1024 µg/mL stock solutions to give a final range of 512-0.5 µg/mL in the wells. Ampicillin 1∶2 serial dilutions were prepared from a 256 µg/mL stock solution to give a final range of 128-0.13 µg/mL in the wells. Polymyxin B and gentamicin 1∶2 serial dilutions were prepared from a 64 µg/mL stock solution to give a final range of 32-0.03 µg/mL in the wells.
# as §3, with “Incubation time was additionally extended up to 44 hours for the individual isolates due to a potential effect of growth rate on the outcome, but no effect was seen of this (not shown).” left out
# Four isolates, i.e. 2-7, 4-4, 5-6 and 7-3, a representative isolate from four different lineages, were revived from freeze storage. The four isolates were grown in 25–50% blood plasma and in 25–50% heat-inactivated plasma as previously described. Blood plasma was obtained from two different blood donors using sodium citrate as anticoagulant and experiments were performed on at least two independent days. Both donors were fully informed about the study and purpose and a written consent has been received. […] For this the 1∶2 serial dilutions were made in MHB with 50% blood plasma added to give a final concentration of 25% plasma in the wells.
structure (smiles),measurement,setting,value
CC(=O)N[C@@H](CCCCNC(=N)N)C(=O)N(CCC(=O)N[C@@H](CCCCNC(=N)N)C(=O)N(CCC(=O)N[C@@H](CCCCNC(=N)N)C(=O)N(CCC(=O)N[C@@H](CCCCNC(=N)N)C(=O)N(CCC(=O)N[C@@H](CCCCNC(=N)N)C(=O)N(CCC(=O)N[C@@H](CCCCNC(=N)N)C(=O)N(CCC(N)=O)[C@@H](C)c1ccccc1)[C@@H](C)c1ccccc1)[C@@H](C)c1ccccc1)[C@@H](C)c1ccccc1)[C@@H](C)c1ccccc1)[C@@H](C)c1ccccc1 [peptidomimetic 1],MIC against peptidomimetic 1 after 35 generations w/o selection,[1]; Control 1 lineage (MilliQ water),16 to 32 µg/mL
same,MIC against peptidomimetic 1 after selection,"[1]; Control 1 lineage (MilliQ water, no peptidomimetic)",32 µg/mL
same,MIC against peptidomimetic 1 after 35 generations w/o selection,[1]; Control 2 lineage (MilliQ water),8 µg/mL
same,MIC against peptidomimetic 1 after selection,"[1]; Control 2 lineage (MilliQ water, no peptidomimetic)",8 µg/mL
same,MIC against peptidomimetic 1 after 35 generations w/o selection,"[2]; peptidomimetic-exposed lineage 1, five passages in unsupplemented MHB",128 to 256 µg/mL
same,MIC against peptidomimetic 1 after 35 generations w/o selection,"[2]; peptidomimetic-exposed lineage 2, five passages in unsupplemented MHB",256 µg/mL
same,MIC against peptidomimetic 1 after selection,"[2]; peptidomimetic-exposed lineage 2, population outgrown at 32×wt MIC",256 µg/mL
same,MIC against peptidomimetic 1 after 35 generations w/o selection,"[2]; peptidomimetic-exposed lineage 3, five passages in unsupplemented MHB",128 µg/mL
same,MIC against peptidomimetic 1 after 35 generations w/o selection,"[2]; peptidomimetic-exposed lineage 4, five passages in unsupplemented MHB",128 µg/mL
same,MIC against peptidomimetic 1 after selection,"[2]; peptidomimetic-exposed lineage 4, population outgrown at 32×wt MIC",256 µg/mL
same,MIC against peptidomimetic 1 after 35 generations w/o selection,"[2]; peptidomimetic-exposed lineage 5, five passages in unsupplemented MHB",128 µg/mL
same,MIC against peptidomimetic 1 after selection,"[2]; peptidomimetic-exposed lineage 5, population outgrown at 32×wt MIC",128 µg/mL and 64 to 128 µg/mL
same,MIC against peptidomimetic 1 after 35 generations w/o selection,"[2]; peptidomimetic-exposed lineage 6, five passages in unsupplemented MHB",64 to 128 µg/mL
same,MIC against peptidomimetic 1 after 35 generations w/o selection,"[2]; peptidomimetic-exposed lineage 7, five passages in unsupplemented MHB",128 µg/mL
same,MIC against peptidomimetic 1 after selection,"[2]; peptidomimetic-exposed lineage 7, population outgrown at 32×wt MIC",128 µg/mL
same,MIC against peptidomimetic 1 after 35 generations w/o selection,"[2]; peptidomimetic-exposed lineage 8, five passages in unsupplemented MHB",32 to 64 µg/mL
same,MIC against peptidomimetic 1 after 35 generations w/o selection,"[2]; peptidomimetic-exposed lineage 9, five passages in unsupplemented MHB",128 µg/mL
same,MIC against peptidomimetic 1 after 35 generations w/o selection,"[2]; peptidomimetic-exposed lineage 10, five passages in unsupplemented MHB",32 µg/mL
same,MIC against peptidomimetic 1 after selection,"[2]; peptidomimetic-exposed lineage 10, population outgrown at 32×wt MIC",256 µg/mL
same,cross-resistance after removal of the selection pressure,[3],lost
same,Potentiation (ability of plasma to interact synergistically with peptidomimetic 1),[4]; isolate 2–7,Strong
same,MIC in MHB +25% plasma,[4]; isolate 2–7,0.25 to 2 µg/mL
same,Potentiation (ability of plasma to interact synergistically with peptidomimetic 1),[4]; isolate 4–4,Weak
same,MIC in MHB +25% plasma,[4]; isolate 4–4,1 to 4 µg/mL
same,Potentiation (ability of plasma to interact synergistically with peptidomimetic 1),[4]; isolate 5–6,Weak
same,MIC in MHB +25% plasma,[4]; isolate 5–6,4 to 8 µg/mL
same,Potentiation (ability of plasma to interact synergistically with peptidomimetic 1),[4]; isolate 7–3,Strong
same,MIC in MHB +25% plasma,[4]; isolate 7–3,1 to 2 µg/mL

# Source: PMC3764026, “Adaptive Evolution of Escherichia coli to an α-Peptide/β-Peptoid Peptidomimetic Induces Stable Resistance” (PLoS ONE, 2013)
